Our source for the IC50 values is paper PMC5859192, “Mechanisms underlying the lack of endogenous processing and CLIP-mediated binding of the invariant chain by HLA-DP^84Gly” (Scientific Reports, 2018).

The target of test [1] is T1, HLA-DP4 (DPA1*01:03/DPB1*04:01) expressed on K562 cells (Homo sapiens, UniProt P04440+P20036).
T1 construct: expressed in transfected cells; host or cells: K562 (human erythroleukemic cells without endogenous MHC class II, Ii or HLA-DM), retrovirally transduced, pMX vector
T1 sequence (P20036 29-260): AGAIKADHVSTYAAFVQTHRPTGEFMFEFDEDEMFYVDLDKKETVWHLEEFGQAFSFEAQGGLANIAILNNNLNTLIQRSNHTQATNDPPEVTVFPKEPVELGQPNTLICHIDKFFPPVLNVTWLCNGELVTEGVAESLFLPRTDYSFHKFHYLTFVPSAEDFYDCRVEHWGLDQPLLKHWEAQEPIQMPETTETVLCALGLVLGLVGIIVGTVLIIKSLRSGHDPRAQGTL
T1 sequence (P04440 30-258): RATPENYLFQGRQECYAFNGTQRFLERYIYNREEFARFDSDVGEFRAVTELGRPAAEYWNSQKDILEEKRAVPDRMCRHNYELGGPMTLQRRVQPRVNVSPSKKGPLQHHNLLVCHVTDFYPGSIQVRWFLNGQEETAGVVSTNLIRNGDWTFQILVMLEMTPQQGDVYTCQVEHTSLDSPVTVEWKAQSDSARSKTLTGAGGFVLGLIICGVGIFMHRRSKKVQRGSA
In words: cell-based. Type of test: binding.

Test [2] addresses T2, DP4^84DEAV87 (substitution mutant of DPB1*04:01 with DPA1*01:03) expressed on K562 cells (Homo sapiens, UniProt P04440+P20036, G113D/G114E/M116V/P115A).
T2 construct: expressed in transfected cells; host or cells: K562 (human erythroleukemic cells without endogenous MHC class II, Ii or HLA-DM), retrovirally transduced, pMX vector
T2 sequence (P20036 29-260): T1 sequence (P20036 29-260)
T2 sequence (P04440 30-258 G113D/G114E/P115A/M116V): T1 sequence (P04440 30-258) with G84D, G85E, P86A, M87V
In words: cell-based. Type of test: binding.

Positions count from the first letter of the chain named. “And” between values parts separate entries of the source, which are not always exact repeats. Equal entries are not always repeated. Ends that are not written are not given here.

Take “KKLLTQHFVQENYLEY [MAGE-A3_243–258, reference compound]”: the IC50 amounted to 28.7 µM in test [1] and 33.7 µM in test [2].
On to LPKPPKPVSKMRMATPLLMQALPM [CLIP], for which the IC50 in test [1] is 12.2 µM and 14.7 µM; in test [2] it was 6 µM.
Turning to “LPKPPKPVSKMRMATPLLMQALPMGALPQ [C-extended CLIP]”, the IC50 in test [1] stood at 15.3 µM.
Same read-out and setting: next, “NLRMKLPKPPKPVSKMRMATPLLMQALPM [N-extended CLIP]”: 29.8 µM.
